pIC50: −log10 of the molar value.
Molecular target: human MGL from HeLa cells (Homo sapiens (Human), UniProt Q99685)
Assay: MGL in vitro activity assay ([glycerol-1,3-3H]-oleoyl glycerol hydrolysis, activated carbon filtration)
Assay type: biochemical
Details: 300 nM [Glycerol-1,3-3H]-oleoyl glycerol, one hour
How it was run: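 Activity measured as tritium in the flow-through after activated carbon filtration of a 1 h reaction containing 300 nM 3H-oleoyl glycerol, compound and HeLa-derived human MGL. Compounds screened at 10 μM; IC50 series start at an empirically chosen highest concentration.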

Sequence of human MGL from HeLa cells (Q99685 whole entry): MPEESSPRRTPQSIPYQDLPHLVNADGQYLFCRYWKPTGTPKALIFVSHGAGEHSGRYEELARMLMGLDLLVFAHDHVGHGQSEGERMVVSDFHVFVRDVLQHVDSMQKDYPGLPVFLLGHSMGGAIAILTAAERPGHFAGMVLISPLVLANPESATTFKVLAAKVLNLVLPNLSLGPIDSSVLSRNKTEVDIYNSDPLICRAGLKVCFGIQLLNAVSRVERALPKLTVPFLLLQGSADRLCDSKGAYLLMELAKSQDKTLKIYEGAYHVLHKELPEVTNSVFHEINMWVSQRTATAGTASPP

Row | Compound | pIC50
1 | CC(C)(C)c1cccc(CC2CC3(C2)CN(C(=O)[C@H]2C[C@@](C)(O)C2)C3)n1 [Example 233, (6-((6-(tert-Butyl)pyridin-2-yl)methyl)-2-azaspiro[3.3]heptan-2-yl)((1s,3s)-3-hydroxy-3-methylcyclobutyl)methanone] | 6.56
2 | C[C@]1(O)C[C@@H](C(=O)N2CC3(CCC(Cc4ccccc4)CC3)C2)C1 [Example 235, (7-Benzyl-2-azaspiro[3.5]nonan-2-yl)((1s,3s)-3-hydroxy-3-methylcyclobutyl)methanone] | 7.40
3 | Cc1ccccc1CC1CCC2(CC1)CN(C(=O)[C@H]1C[C@@](C)(O)C1)C2 [Example 236, ((1s,3s)-3-Hydroxy-3-methylcyclobutyl)(7-(2-methylbenzyl)-2-azaspiro[3.5]nonan-2-yl)methanone] | 7.31
4 | C[C@]1(O)C[C@@H](C(=O)N2CC3(CC(Cn4ccc(C(F)(F)F)n4)C3)C2)C1 [Example 237, ((1s,3s)-3-Hydroxy-3-methylcyclobutyl)(6-((3-(trifluoromethyl)-1H-pyrazol-1-yl)methyl)-2-azaspiro[3.3]heptan-2-yl)methanone] | 6.08
5 | Cc1ccccc1OC1CC2(C1)CN(C(=O)[C@H]1C[C@@](C)(O)C1)C2 [Example 238, ((1s,3s)-3-Hydroxy-3-methylcyclobutyl)(6-(o-tolyloxy)-2-azaspiro[3.3]heptan-2-yl)methanone] | 6.27
6 | Cc1cc(OC2CCC3(CC2)CN(C(=O)[C@H]2C[C@@](C)(O)C2)C3)ccc1C(F)(F)F [Example 239, ((1s,3s)-3-Hydroxy-3-methylcyclobutyl)(7-(3-methyl-4-(trifluoromethyl)phenoxy)-2-azaspiro[3.5]nonan-2-yl)methanone] | 9.40
7 | CC(C)c1cccc(OC2CCC3(CC2)CN(C(=O)[C@H]2C[C@@](C)(O)C2)C3)c1 [Example 241, ((1s,3s)-3-Hydroxy-3-methylcyclobutyl)(7-(3-isopropylphenoxy)-2-azaspiro[3.5]nonan-2-yl)methanone] | 7.57
8 | CC(C)c1ccc(OC2CCC3(CC2)CN(C(=O)[C@H]2C[C@@](C)(O)C2)C3)cc1 [Example 242, ((1s,3s)-3-Hydroxy-3-methylcyclobutyl)(7-(4-isopropylphenoxy)-2-azaspiro[3.5]nonan-2-yl)methanone] | 8.20
9 | CC(C)(C)c1cccc(OC2CC3(C2)CN(C(=O)[C@H]2C[C@@](C)(O)C2)C3)c1 [Example 244, (6-(3-(tert-Butyl)phenoxy)-2-azaspiro[3.3]heptan-2-yl)((1s,3s)-3-hydroxy-3-methylcyclobutyl)methanone] | 7.20
10 | Cc1ccc(OC2CC3(CCN(C(=O)[C@H]4C[C@@](C)(O)C4)CC3)C2)cc1 [Example 245, ((1s,3s)-3-Hydroxy-3-methylcyclobutyl)(2-(p-tolyloxy)-7-azaspiro[3.5]nonan-7-yl)methanone] | 6.48
11 | CC(C)(C)c1ccc(OC2CC3(C2)CN(C(=O)[C@H]2C[C@@](C)(O)C2)C3)cc1 [Example 246, (6-(4-(tert-Butyl)phenoxy)-2-azaspiro[3.3]heptan-2-yl)((1s,3s)-3-hydroxy-3-methylcyclobutyl)methanone] | 7.08
12 | Cc1cc(OC2CC3(C2)CN(C(=O)[C@H]2C[C@@](C)(O)C2)C3)ccc1C(F)(F)F [Example 247, ((1s,3s)-3-Hydroxy-3-methylcyclobutyl)(6-(3-methyl-4-(trifluoromethyl)phenoxy)-2-azaspiro[3.3]heptan-2-yl)methanone] | 7.85
13 | Cc1ccc(OC2CC3(C2)CN(C(=O)[C@H]2C[C@@](C)(O)C2)C3)cc1C(F)(F)F [Example 248, ((1s,3s)-3-Hydroxy-3-methylcyclobutyl)(6-(4-methyl-3-(trifluoromethyl)phenoxy)-2-azaspiro[3.3]heptan-2-yl)methanone] | 6.94
14 | Cc1cc(C(F)(F)F)ccc1OC1CC2(C1)CN(C(=O)[C@H]1C[C@@](C)(O)C1)C2 [Example 249, ((1s,3s)-3-Hydroxy-3-methylcyclobutyl)(6-(2-methyl-4-(trifluoromethyl)phenoxy)-2-azaspiro[3.3]heptan-2-yl)methanone] | 7.70
15 | Cc1cccc(OC2CC3(C2)CN(C(=O)[C@H]2C[C@@](C)(O)C2)C3)c1C(F)(F)F [Example 250, ((1s,3s)-3-Hydroxy-3-methylcyclobutyl)(6-(3-methyl-2-(trifluoromethyl)phenoxy)-2-azaspiro[3.3]heptan-2-yl)methanone] | 7.46
16 | CC(C)c1cccc(OC2CC3(C2)CN(C(=O)[C@H]2C[C@@](C)(O)C2)C3)c1C(F)(F)F [Example 251, ((1s,3s)-3-Hydroxy-3-methylcyclobutyl)(6-(3-isopropyl-2-(trifluoromethyl)phenoxy)-2-azaspiro[3.3]heptan-2-yl)methanone] | 8.13
17 | Cc1c(OC2CC3(C2)CN(C(=O)[C@H]2C[C@@](C)(O)C2)C3)cccc1C(F)(F)F [Example 252, ((1s,3s)-3-Hydroxy-3-methylcyclobutyl)(6-(2-methyl-3-(trifluoromethyl)phenoxy)-2-azaspiro[3.3]heptan-2-yl)methanone] | 7.33

Row | Compound | pIC50
18 | CC(C)(C)c1cccc(OC2CCC3(CC2)CN(C(=O)[C@H]2C[C@@](C)(O)C2)C3)c1 [Example 257, (7-(3-(tert-Butyl)phenoxy)-2-azaspiro[3.5]nonan-2-yl)((1s,3s)-3-hydroxy-3-methylcyclobutyl)methanone] | 8.09
19 | Cc1cc(C(F)(F)F)ccc1OC1CCC2(CC1)CN(C(=O)[C@H]1C[C@@](C)(O)C1)C2 [Example 258, ((1s,3s)-3-Hydroxy-3-methylcyclobutyl)(7-(2-methyl-4-(trifluoromethyl)phenoxy)-2-azaspiro[3.5]nonan-2-yl)methanone] | 9.70
20 | Cc1ccc(OC2CCC3(CC2)CN(C(=O)[C@H]2C[C@@](C)(O)C2)C3)cc1C(F)(F)F [Example 259, ((1s,3s)-3-Hydroxy-3-methylcyclobutyl)(7-(4-methyl-3-(trifluoromethyl)phenoxy)-2-azaspiro[3.5]nonan-2-yl)methanone] | 8.52
21 | CC(C)(C)c1ccc(OC2CCC3(CC2)CN(C(=O)[C@H]2C[C@@](C)(O)C2)C3)cc1 [Example 260, (7-(4-(tert-Butyl)phenoxy)-2-azaspiro[3.5]nonan-2-yl)((1s,3s)-3-hydroxy-3-methylcyclobutyl)methanone] | 8.00
22 | C[C@]1(O)C[C@@H](C(=O)N2CC3(CCC(Oc4ccc(C5CC5)cc4)CC3)C2)C1 [Example 261, (7-(4-Cyclopropylphenoxy)-2-azaspiro[3.5]nonan-2-yl)((1s,3s)-3-hydroxy-3-methylcyclobutyl)methanone] | 8.14
23 | C[C@]1(O)C[C@@H](C(=O)N2CC3(CCC(Oc4ccc(OC(F)(F)F)cc4)CC3)C2)C1 [Example 262, ((1s,3s)-3-Hydroxy-3-methylcyclobutyl)(7-(4-(trifluoromethoxy)phenoxy)-2-azaspiro[3.5]nonan-2-yl)methanone] | 8.49
24 | C[C@]1(O)C[C@@H](C(=O)N2CC3(CCC(Oc4cccc(OC(F)(F)F)c4)CC3)C2)C1 [Example 263, ((1s,3s)-3-Hydroxy-3-methylcyclobutyl)(7-(3-(trifluoromethoxy)phenoxy)-2-azaspiro[3.5]nonan-2-yl)methanone] | 7.92
25 | C[C@]1(O)C[C@@H](C(=O)N2CC3(CCC(Oc4cccc(C5CC5)c4)CC3)C2)C1 [Example 264, (7-(3-Cyclopropylphenoxy)-2-azaspiro[3.5]nonan-2-yl)((1s,3s)-3-hydroxy-3-methylcyclobutyl)methanone] | 7.49
26 | CC(C)c1ccccc1OC1CCC2(CC1)CN(C(=O)[C@H]1C[C@@](C)(O)C1)C2 [Example 265, ((1s,3s)-3-Hydroxy-3-methylcyclobutyl)(7-(2-isopropylphenoxy)-2-azaspiro[3.5]nonan-2-yl)methanone] | 7.43
27 | COC1(c2cccc(C(C)C)c2)CCC2(CC1)CN(C(=O)[C@H]1C[C@@](C)(O)C1)C2 [Example 266, ((1s,3s)-3-Hydroxy-3-methylcyclobutyl)(7-(3-isopropylphenyl)-7-methoxy-2-azaspiro[3.5]nonan-2-yl)methanone] | 8.92
28 | Cc1cc(C2CC3(C2)CN(C(=O)[C@H]2C[C@@](C)(O)C2)C3)cc(C(F)(F)F)c1 [Example 267, ((1s,3s)-3-Hydroxy-3-methylcyclobutyl)(6-(3-methyl-5-(trifluoromethyl)phenyl)-2-azaspiro[3.3]heptan-2-yl)methanone] | 7.19
29 | Cn1ccc2cc(C3CC4(C3)CN(C(=O)[C@H]3C[C@@](C)(O)C3)C4)cnc21 [Example 268, ((1s,3s)-3-Hydroxy-3-methylcyclobutyl)(6-(1-methyl-1H-pyrrolo[2,3-b]pyridin-5-yl)-2-azaspiro[3.3]heptan-2-yl)methanone] | 5.62
30 | Cn1ccc2ccc(C3CC4(C3)CN(C(=O)[C@H]3C[C@@](C)(O)C3)C4)nc21 [Example 269, ((1s,3s)-3-Hydroxy-3-methylcyclobutyl)(6-(1-methyl-1H-pyrrolo[2,3-b]pyridin-6-yl)-2-azaspiro[3.3]heptan-2-yl)methanone] | 6.29
31 | COC1(Cc2ccccc2)CC2(CN(C(=O)[C@H]3C[C@@](C)(O)C3)C2)C1 [Example 270, (6-Benzyl-6-methoxy-2-azaspiro[3.3]heptan-2-yl)((1s,3s)-3-hydroxy-3-methylcyclobutyl)methanone] | 5.48
32 | C[C@]1(O)C[C@@H](C(=O)N2CC3(CC(Cc4ccccc4C4CC4)C3)C2)C1 [Example 271, (6-(2-Cyclopropylbenzyl)-2-azaspiro[3.3]heptan-2-yl)((1s,3s)-3-hydroxy-3-methylcyclobutyl)methanone] | 8.44
33 | C[C@]1(O)C[C@@H](C(=O)N2CC3(CC(Cc4ccc(OC5CC5)cc4)C3)C2)C1 [Example 272, (6-(4-Cyclopropoxybenzyl)-2-azaspiro[3.3]heptan-2-yl)((1s,3s)-3-hydroxy-3-methylcyclobutyl)methanone] | 8.09
34 | Cc1cc(F)ccc1CC1CC2(C1)CN(C(=O)[C@H]1C[C@@](C)(O)C1)C2 [Example 273, (6-(4-Fluoro-2-methylbenzyl)-2-azaspiro[3.3]heptan-2-yl)((1s,3s)-3-hydroxy-3-methylcyclobutyl)methanone] | 8.00

— US11802111B2, “Cyclobutyl amide monoacylglycerol lipase modulators” (Janssen Pharmaceutica NV, priority 2020, dated 2023)
